Consider 2 compounds from patent publication US20250223306A1, “TEAD INHIBITORS AND METHODS OF USE” (Sporos BioDiscovery, Inc., priority 2022, published 2025).

This test deals with NCI-H226 xenograft. The experiment in a line: Inhibition of mouse xenograft NCI-H226 tumors. The class given is in vivo, BALB/c nude mice. Particulars: Day 27, p.o., QD. The text has this: This study evaluated the in vivo therapeutic efficacy of TEAD inhibitors in the treatment of the subcutaneous lung cancer NCI-H226 xenograft model in female BALB/c nude mice.
• ANOVA Analysis of variance • BW Body weight • BWL Body weight loss • FFPE Formalin fixed paraffin embedded • IACUC Institutional animal care and use committee • MTV Mean tumor volume • N/A Not available or not applicable • p.o. Oral (ly) • QD Once a day • REG REG=[(T0−Ti)/T0]×100%; • Ti as the mean tumor volume of the treatment group on the measurement day; • T0 as the mean tumor volume of the treatment group on Day 0. • ROA Route of administration • RT Room temperature • RTV Relative tumor volume • SD Standard deviation • SEM Standard error of mean • SOC Standard of care used in clinical setting for a specific disease • TBD To be determined • T/C The Ti/Ci value (%): T/C %=Ti/Ci×100; • Ti and Ci are the mean tumor volumes of the treatment and control groups, respectively, on a given day. • TGI Tumor growth inhibition; TGI %=(1−Ti/Ci)×100; • Ti and Ci are the mean tumor volumes of the treatment and control groups, respectively, on a given day. • TV Tumor volume • PK/PD Pharmacokinetics/Pharmacodynamics • ΔInhibition Mean % ΔInhibition=((Ci−C0)−(Ti−T0))/(Ci−C0)*100% • Ti and Ci are the mean tumor volumes of the treatment and control groups, respectively, on a given day. T0 and C0 as the mean tumor volumes of the treatment and vehicle groups on Day 0.
• Species Mus musculus • Strain Balb/c nude • Supplier GemPharmatech Co., Ltd • Gender Female • No. of Animals Ordered 68 (45 plus 23 spare) • No. of Animals Assigned 45 • to Study • Average Age of Animals 6-8 weeks • at Study Initiation
The NCI-H226 cells (CL-00364) cancer cells were maintained in vitro with RPMI1640 medium supplemented with 10% fetal bovine serum at 37° C. in an atmosphere of 5% CO2 in the air. The cells in exponential growth phase were harvested and quantitated by cell counter before tumor inoculation.
Each mouse was inoculated subcutaneously in the right front flank region with NCI-H226 tumor cells (1×10^7) in 0.2 ml of PBS mixed with Matrigel (1:1) for tumor development.
The randomization was performed when the mean tumor size reached 138.81 mm^3. 45 mice were enrolled in the study. All animals were randomly allocated to 9 study groups, 5 mice in each group. Randomization was performed based on “Matched distribution” method/“Stratified” method (StudyDirector™ software, version 3.1.399.19)/randomized block design. The date of randomization was denoted as day 0.
The treatment was initiated on the same day of randomization (day 0) per study design.
After tumor cells inoculation, the animals were checked daily for morbidity and mortality. During routine monitoring, the animals were checked for any effects of tumor growth and treatments on behavior such as mobility, food and water consumption, body weight gain/loss (Body weights were measured twice per week after randomization), eye/hair matting and any other abnormalities. Mortality and observed clinical signs were recorded for individual animals in detail.
Tumor volumes were measured twice per week after randomization in two dimensions using a caliper, and the volume was expressed in mm^3 using the formula: “V=(L×W×W)/2, where V is tumor volume, L is tumor length (the longest tumor dimension) and W is tumor width (the longest tumor dimension perpendicular to L). Dosing as well as tumor and body weight measurements were conducted in a Laminar Flow Cabinet.
To compare tumor volumes of different groups at a pre-specified day, Bartlett's test was first used to check the assumption of homogeneity of variance across all groups. When the p-value of Bartlett's test was >=0.05, one-way ANOVA was performed to test overall equality of means across all groups. […]

The structures appear in SMILES notation.

In the case of `O=C(NCc1ncco1)c1cnc2c(C3=CCC(C(F)(F)F)CC3)cccc2c1` (stereo not drawn) [Compound 11, N-(oxazol-2-ylmethyl)-8-(4-(trifluoromethyl)cyclohex-1-en-1-yl)quinoline-3-carboxamide], where the note is “3 mg/kg”, the T/C (usually the ratio of treated to control) is 89.83%; the TGI (as a rule, how far tumour growth fell short of that in controls) stood at 10.17%; the “Tumor Volume (mean ± SEM)” value amounted to 479.84 ± 96.60 mm^3. For the same compound, where the note is “10 mg/kg”, the T/C is recorded as 36.49%, the TGI worked out at 63.51% and the “Tumor Volume (mean ± SEM)” value was found to be 194.94 ± 42.44 mm^3. Where the note is “25 mg/kg”, the T/C amounted to 21.10%, the TGI was found to be 78.90% and the “Tumor Volume (mean ± SEM)” value is recorded as 112.73 ± 17.20 mm^3.

Turning to `C[C@H](NC(=O)c1cnc2c(C3=CCC(C(F)(F)F)CC3)cccc2c1)c1ccccn1` (stereo partly drawn) [Compound 2, N—((S)-1-(pyridin-2-yl)ethyl)-8-(4-(trifluoromethyl)cyclohex-1-en-1-yl)quinoline-3-carboxamide], under “3 mg/kg”, the T/C was 64.62%, the TGI amounted to 35.38% and the “Tumor Volume (mean ± SEM)” value came out at 345.21 ± 85.33 mm^3. Besides, for the setting “10 mg/kg”, the T/C was 45.64%, the TGI was 54.36% and the “Tumor Volume (mean ± SEM)” value was 243.78 ± 74.70 mm^3. For the setting “25 mg/kg”, the T/C is 19.66%, the TGI is given as 80.34% and the “Tumor Volume (mean ± SEM)” value was found to be 105.03 ± 13.17 mm^3.
